Measured values published in US4039384A, “Creatinine amidohydrolase and creatine amidinohydrolase and process for producing them” (Noda Institute for Scientific Research, priority 1975, dated 1977).
Like-named read-outs stand apart in the source and are kept apart here.

What was measured:
[1] = molecular target: T1, creatine amidinohydrolase of this invention (from Flavobacterium U-188, Micrococcus luteus ATCC 398 or Corynebacterium U-41) (Flavobacterium sp. U-188, UniProt P19213); experiment: Creatine amidinohydrolase activity, enzyme of this invention; assay type: biochemical
T1 sequence (P19213 1-403): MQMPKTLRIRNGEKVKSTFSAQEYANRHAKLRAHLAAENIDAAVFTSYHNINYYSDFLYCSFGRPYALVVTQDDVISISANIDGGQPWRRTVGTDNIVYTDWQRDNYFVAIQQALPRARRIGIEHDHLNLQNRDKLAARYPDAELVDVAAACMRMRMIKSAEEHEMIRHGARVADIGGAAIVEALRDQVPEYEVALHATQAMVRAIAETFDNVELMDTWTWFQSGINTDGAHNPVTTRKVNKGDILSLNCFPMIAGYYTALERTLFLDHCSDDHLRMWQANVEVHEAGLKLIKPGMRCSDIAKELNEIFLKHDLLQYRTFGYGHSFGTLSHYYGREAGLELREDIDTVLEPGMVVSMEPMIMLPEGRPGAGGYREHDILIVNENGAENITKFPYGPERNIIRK
Method: This enzyme has an ability to hydrolyze creatine into urea and sarcosine. […] 2.
To 0.8 ml of 0.1 M creatine solution are added 0.1 of 0.3 M phosphate buffer (pH 7.7) and 0.1 ml of a solution of this enzyme having an appropriate concentration, and the resulting mixture is reacted at 37° C. for 10 minutes. Then, 2 ml of 2% (W/V) p-dimethylaminobenzaldehyde solution (prepared by dissolving 2 g of p-dimethylaminobenzaldehyde into 100 ml of 99.5% ethanol, adding 15 ml of concentrated hydrochloric acid and diluting the mixture with distilled water to a 2 times greater quantity) is added, and the resulting mixture is allowed to stand at 25° C. for 30 minutes. Then, its absorbance (O. D. value) at 435 mμ is measured with photoelectric colorimeter. […] The quantity of enzyme necessary for producing 1 micromole of urea per one minute at 37° C. is taken as one unit.

[2] = molecular target: T2, creatine amidinohydrolase of prior art (i) (Journal of General Microbiology, Vol. 14, pp. 351 to 365 (1956); Genus Pseudomonas) (Pseudomonas putida, UniProt P38488); details: cited from earlier work
T2 sequence (P38488 1-403): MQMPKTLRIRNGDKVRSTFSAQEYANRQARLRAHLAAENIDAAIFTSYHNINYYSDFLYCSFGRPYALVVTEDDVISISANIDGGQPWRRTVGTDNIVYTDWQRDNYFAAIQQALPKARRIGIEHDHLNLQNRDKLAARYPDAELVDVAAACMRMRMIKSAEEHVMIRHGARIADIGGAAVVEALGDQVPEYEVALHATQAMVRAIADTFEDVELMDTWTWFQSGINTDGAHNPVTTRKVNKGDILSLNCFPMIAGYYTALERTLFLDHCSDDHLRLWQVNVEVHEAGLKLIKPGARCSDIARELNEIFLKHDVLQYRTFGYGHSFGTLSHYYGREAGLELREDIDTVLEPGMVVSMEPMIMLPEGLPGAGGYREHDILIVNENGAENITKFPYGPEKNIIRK

[3] = inhibitor final concentration 2 × 10^-2 M
[4] = inhibitor final concentration 5 × 10^-2 M, pH 9.1

[N-]=[N+]=[N-] [Azide]
Percentage inhibition of creatine removal [1, 3]: 0% | Percentage inhibition of creatine removal [2, 3]: 18%

O=C(O)CI [Iodoacetate]
inhibition at 10000 µM ([1]; read-out: Percentage inhibition of creatine removal): 0% | Percentage inhibition of creatine removal ([2]; inhibitor final concentration 10^-2 M): 20%

Borate
Percentage inhibition of creatine removal [1, 4]: 40% | Percentage inhibition of creatine removal [2, 4]: 80%
